Source: ChEMBL document CHEMBL1201862, “PubChem BioAssay data set” (2004)
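1) Cells in 96-well plates. 2) Compound, 48 h, 5 concentrations. 3) Linear interpolation between surrounding doses. 4) Unreached endpoint = highest concentration. GI50: concentration for 50% inhibition of growth.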 Active and inactive are the calls of the source. Cut-off read from the data, not from the text of the source: active = GI50 up to about 1.1 µM and inactive = higher.

Experiments:
Test in all cases: NCI-60 cell line screen, 48 h
[1] = test system: XF498
[2] = test system: KM-20L2
[3] = test system: DMS-114
[4] = test system: RXF 631
[5] = test system: DLD-1
[6] = test system: LXFL 529
[7] = test system: HOP-18
[8] = test system: SNB-78
[9] = test system: BT-549

Measured: GI50

COc1ccc2[nH]cc(CCNC(=O)[C@](O)(Cc3cn(C)c4ccccc34)[C@@]3(O)OCC(O)C3O)c2c1 (some centres undefined)
inactive: [1] 90.6 µM | [2] > 100 µM | [3] 35.6 µM | [4] > 100 µM | [5] > 100 µM | [6] 67.8 µM | [7] > 100 µM

Oc1ccc2c(c1)OCC1(O)Cc3cc(O)c(O)cc3C21 (centres undefined)
inactive: [1] 15.2 µM | [8] 14.7 µM | [2] 38.3 µM | [3] 26.7 µM | [4] 41 µM | [5] 17.3 µM | [6] 18.5 µM | [7] 18.3 µM

O=C(CC1(O)C(=O)Nc2c(Cl)ccc(Cl)c21)c1ccco1 (centres undefined)
inactive: [1] 11.9 µM | [8] 51.8 µM | [2] 37.8 µM | [9] 36.5 µM | [3] 18 µM | [4] 26.4 µM | [5] 39.7 µM | [6] 14 µM | [7] > 100 µM

COc1cc2c(c(O)c1O)-c1ccc(OC)c(=O)cc1C(NC(C)=O)CC2 (centres undefined)
inactive: [1] 6.18 µM | [8] 4.54 µM | [2] 3.8 µM | [4] 38 µM | [5] 29.6 µM | [6] 5.25 µM | [7] > 22.1 µM

O=C1[C@@H]2C3c4ccccc4C([C@@H]2C(=O)N1c1ccccc1)S3(=O)=O
inactive: [1] > 100 µM | [8] > 100 µM | [2] > 100 µM | [3] 37.9 µM | [4] 26.8 µM | [5] > 100 µM | [6] > 100 µM | [7] > 100 µM

C[N+](C)(C)CC(=O)NC(=O)N/N=C\C(CC#N)CN(Cc1ccccc1)Cc1ccccc1 (centres undefined)
inactive: [1] > 100 µM | [8] > 100 µM | [2] > 100 µM | [3] > 100 µM | [4] > 100 µM | [5] > 100 µM | [6] > 100 µM | [7] 59.6 µM

CCOC(=O)C12CCCC1(O)N(NC(N)=O)C(C)=C2C(=O)OC (centres undefined)
inactive: [1] > 100 µM | [8] > 100 µM | [2] > 100 µM | [3] > 100 µM | [4] > 100 µM | [5] > 100 µM | [6] > 100 µM | [7] > 100 µM

CCn1c(C)nc([N+](=O)[O-])c1Sc1ncc[nH]1
inactive: [1] 43.2 µM | [8] 33.7 µM | [3] 34.4 µM | [4] 24.7 µM | [5] 30.5 µM | [6] 26.1 µM | [7] 4.8 µM

Cc1cc(O)nc(CNC(=O)c2ccc3ccccc3c2)n1
inactive: [1] > 100 µM | [2] > 100 µM | [3] > 100 µM | [4] > 100 µM | [5] > 100 µM | [6] > 100 µM | [7] > 100 µM

CCCCCCCC(=O)OCC1OC(OC)C(NC(=O)N(CCCl)N=O)C(O)C1O (centres undefined)
inactive: [1] 10.2 µM | [8] 22.9 µM | [2] 20.8 µM | [3] 11.9 µM | [4] 2.48 µM | [5] 11.9 µM | [6] 16.9 µM | [7] 18.5 µM

COC1=CC(=O)C2(C=C1OC)OC[C@H]1Oc3c(ccc4c3C=CC(C)(C)O4)C(=O)[C@H]12 (some centres undefined)
inactive: [1] 40.9 µM | [8] 37.8 µM | [2] 46.1 µM | [3] 25.2 µM | [4] > 100 µM | [5] 43.6 µM | [6] 33.3 µM
